From patent US8802411B2, “ADP detection based luminescent phosphotransferase or ATP hydrolase assay” (Promega Corporation, priority 2008, dated 2014)

Key:
pyruvate kinase = target: T1, pyruvate kinase (Oryctolagus cuniculus, UniProt P11974); experiment: ADP to ATP conversion by pyruvate kinase (ADP detection assay); type: biochemical, rabbit
T1 construct: Pyruvate kinase from rabbit muscle (Sigma Catalog number P9136); purchased Sigma P9136; host or cells: rabbit muscle
Method: Pyruvate kinase from rabbit muscle (Sigma Catalog number P9136), myokinase from chicken muscle (Sigma Catalog number M5520), myokinase from rabbit muscle (Sigma Catalog number M3003), creatine phosphokinase from bovine heart (Sigma Catalog number C7886), creatine phosphokinase from rabbit brain (Sigma Catalog number C6638), and creatine phosphokinase from rabbit muscle (Sigma Catalog number C3755) were obtained from Sigma.
80 μL of Reagent 2 (800 μM phosphoenolpyruvate and 800 mU pyruvate kinase in 80 μL Kinase-Glo® Max (Promega Corp.)) were added simultaneously to the kinase or ATPase reaction and incubated for 30-60 minutes at room temperature. The data were collected using a plate reading luminometer (GloMax® 96 Microplate Luminometer).
When the assay was performed in 3 steps, the following modification was introduced. After the ATP depletion step, 20 μL of pyruvate kinase (PK) reagent (40 mM Tris pH 7.0, 335 mM KCl, 500 μM calmidazolium, 500 μM phosphoenolpyruvate, 15 mM EDTA, 0.3 mg/mL BSA and 300-600 mU pyruvate kinase) was added, the reaction incubated for 5-10 minutes, and 100 μL Kinase-Glo® Max (Promega Corp.) was added to detect the ATP produced. After a 10 minute incubation, the plate was read on a plate reading luminometer (GloMax 96 Microplate Luminometer; Promega Corp.).

adenylate cyclase (AC) = experiment: Adenylate cyclase assay and inhibition; type: biochemical; conditions: for use as inhibitors of adenylate cyclase: calmodulin antagonists, when converting ADP to ATP, FIG. 5
Method: Activity of various adenylyl cyclases (ACs) was measured at 30° C. for 30 minutes in the presence of 60 mM Tris pH 7.5, 10 mM MgCl2, 40 nM calmodulin and variable ATP concentrations. Except for those experiments related to AC titration, 100 ng of the AC was used. When used, the calmodulin antagonists were prepared according to the manufacturer's recommendation and were added directly to the AC reaction when direct inhibition was assessed or to the reaction converting ADP to ATP to assess AC inhibition during ATP formation.

T1 sequence (P11974 whole entry): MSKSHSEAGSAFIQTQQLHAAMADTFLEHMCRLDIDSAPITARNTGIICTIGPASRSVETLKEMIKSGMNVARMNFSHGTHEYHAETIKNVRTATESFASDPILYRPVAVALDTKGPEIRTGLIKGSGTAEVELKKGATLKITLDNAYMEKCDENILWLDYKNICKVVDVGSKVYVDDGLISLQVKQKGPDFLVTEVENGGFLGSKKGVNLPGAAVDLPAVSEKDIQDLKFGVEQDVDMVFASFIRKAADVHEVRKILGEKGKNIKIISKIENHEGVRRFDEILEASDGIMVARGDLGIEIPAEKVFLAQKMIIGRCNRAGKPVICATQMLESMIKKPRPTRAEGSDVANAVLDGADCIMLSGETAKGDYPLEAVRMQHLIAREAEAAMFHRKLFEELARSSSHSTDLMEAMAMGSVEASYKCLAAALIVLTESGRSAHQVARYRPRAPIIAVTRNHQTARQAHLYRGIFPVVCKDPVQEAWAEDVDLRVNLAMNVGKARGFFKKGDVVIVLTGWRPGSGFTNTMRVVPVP

| SMILES | interference with the pyruvate kinase reaction (pyruvate kinase; inhibitor used to stop or tested in PKA kinase reaction, FIG. 13) | use as inhibitors of adenylate cyclase (adenylate cyclase (AC)) | inhibition of AC (adenylate cyclase (AC); FIG. 6) | interference with pyruvate kinase conversion of ADP to ATP (pyruvate kinase; even at high calmidozolium concentrations, FIG. 6) |
| --- | --- | --- | --- | --- |
| CN[C@@H]1C[C@H]2O[C@@](C)([C@@H]1OC)n1c3ccccc3c3c4c(c5c6ccccc6n2c5c31)C(=O)NC4 [staurosporine] | did not interfere significantly | – | – | – |
| CN1CCN(CCCN2c3ccccc3Sc3ccc(C(F)(F)F)cc32)CC1 [trifluoroperazine] | – | may be used as inhibitors of adenylate cyclase | – | – |
| Clc1ccc(C(c2ccc(Cl)cc2)n2cc[n+](CC(OCc3ccc(Cl)cc3Cl)c3ccc(Cl)cc3Cl)c2)cc1 (centres unmarked) [calmidazolium] | – | may be used as inhibitors of adenylate cyclase | inhibited | without any significant interference |
